Like-named read-outs stand apart in the source and are kept apart here.
Columns and labels:
[1] = target: T1, δ-opioid receptors (Rattus norvegicus, UniProt P33533); test: Receptor binding assay, [3H]Ile5,6-deltorphin-2 displacement in rat brain membranes
T1 construct: A crude membrane fraction was prepared from Wistar rat brains and spinal cords; from tissue; host or cells: Wistar rat brain (without cerebellum), crude membrane fraction

[2] = test system: rats; test: Behavioral nociceptive testing, paw-withdrawal test (PWD), heat pain threshold; format: in vivo, rat; details: for antinociception, potency and dose dependence: s.c., 0.3-10 mg/kg
Description: The paw-withdrawal test (PWD) was used to measure the heat pain threshold after the treatments. A detailed description of this model was published by Hargreaves et al. (Hargreaves, K.; Dubner, R.; Brown, F.; Flores, C.; Joris, J. Pain; 32, 77 1988). Briefly, rats were placed on a glass surface in a plastic chamber and were allowed to acclimatize to their environment for 15-30 min before testing. The baseline hind paw-withdrawal latencies (baseline values at 0 min determined two times) were then obtained. A heat stimulus was directed onto the plantar surface of each hind paw and the intensity of the thermal stimulus was adjusted to derive an average baseline latency of approximately 10 s (cut-off time 20 s). Then the animals were treated subcutaneously with different doses of ligands (0.3-10 mg/kg). The nociceptive threshold was determined at 15-min intervals for 120 min.
Data are presented as means±SEM. The mean of the two sides and the mean of two time points (15-30; 45-60; 75-90 and […]) were evaluated. The results were analyzed using a two-way ANOVA (ANalysis Of VAriances) (factors: treatment and time with repeated measurements). Subsequent analysis was performed using Fisher-LSD test. A p-value less than 0.05 was considered significant. Data were analyzed using […] 7.1. software (Statsoft Inc., Tulsa, Okla.).

[3] = target: T2, μ-opioid receptors (Rattus norvegicus, UniProt P33535); test: Receptor binding assay, [3H]DAMGO displacement in rat brain membranes
T2 construct: A crude membrane fraction was prepared from Wistar rat brains and spinal cords; from tissue; host or cells: Wistar rat brain (without cerebellum), crude membrane fraction
T2 sequence (P33535 whole entry): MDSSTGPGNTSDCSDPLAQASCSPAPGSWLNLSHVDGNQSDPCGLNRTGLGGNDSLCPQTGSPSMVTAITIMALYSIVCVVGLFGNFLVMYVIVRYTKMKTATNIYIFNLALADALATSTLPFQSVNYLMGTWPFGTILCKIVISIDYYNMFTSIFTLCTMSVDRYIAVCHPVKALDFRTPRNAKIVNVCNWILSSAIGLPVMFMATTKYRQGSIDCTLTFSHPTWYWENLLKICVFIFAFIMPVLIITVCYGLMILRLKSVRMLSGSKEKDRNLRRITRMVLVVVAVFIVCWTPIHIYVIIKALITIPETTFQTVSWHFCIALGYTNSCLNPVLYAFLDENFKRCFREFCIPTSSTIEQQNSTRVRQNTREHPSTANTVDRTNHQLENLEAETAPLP

[4] = 10 mg/kg s.c., 0 min (baseline)

T1 sequence (P33533 whole entry): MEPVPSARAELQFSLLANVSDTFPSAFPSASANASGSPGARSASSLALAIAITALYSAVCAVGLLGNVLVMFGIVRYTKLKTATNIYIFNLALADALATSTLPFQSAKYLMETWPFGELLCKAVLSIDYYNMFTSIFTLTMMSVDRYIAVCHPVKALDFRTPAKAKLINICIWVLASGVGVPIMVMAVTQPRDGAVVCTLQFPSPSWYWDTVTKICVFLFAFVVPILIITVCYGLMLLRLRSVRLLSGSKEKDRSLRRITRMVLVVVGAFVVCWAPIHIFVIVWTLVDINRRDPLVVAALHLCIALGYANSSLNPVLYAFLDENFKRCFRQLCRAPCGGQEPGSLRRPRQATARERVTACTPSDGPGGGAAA

Compound	Ki [1] [nM]	Time course of the antinociceptive effects (paw-withdrawal latency) ([2]; 3 mg/kg s.c., 0 min (baseline)) [s]	Time course of the antinociceptive effects (paw-withdrawal latency) ([2]; 3 mg/kg s.c., 30 min) [s]	Time course of the antinociceptive effects (paw-withdrawal latency) ([2]; 3 mg/kg s.c., 60 min) [s]	Time course of the antinociceptive effects (paw-withdrawal latency) ([2]; 3 mg/kg s.c., 90 min) [s]	Time course of the antinociceptive effects (paw-withdrawal latency) ([2]; 3 mg/kg s.c., 120 min) [s]	Time course of the antinociceptive effects (paw-withdrawal latency) [2, 4] [s]	Time course of the antinociceptive effects (paw-withdrawal latency) ([2]; 10 mg/kg s.c., 30 min) [s]	Time course of the antinociceptive effects (paw-withdrawal latency) ([2]; 10 mg/kg s.c., 60 min) [s]	Time course of the antinociceptive effects (paw-withdrawal latency) ([2]; 10 mg/kg s.c., 90 min) [s]	Time course of the antinociceptive effects (paw-withdrawal latency) ([2]; 10 mg/kg s.c., 120 min) [s]	antinociceptive effect compared to non-deuterated analogues ([2]; 10 mg/kg s.c., in words)	antinociception, potency and dose dependence ([2]; in words)	Ki [3] [nM]	affinity to μ-opioid receptors compared to the corresponding hydrogenated derivative ([3]; in words)	Ki ([1]; [3H]Ile5,6-deltorphin-2, rat brain membranes, read-out: Ki^δ) [nM]	Ki ([3]; [3H]DAMGO, rat brain membranes, read-out: Ki^μ) [nM]	Ki^δ/Ki^μ ([3]; selectivity ratio δ/μ)	antinociceptive effect at 3 mg/kg, efficacy compared to morphine ([2]; 3 mg/kg s.c., in words)	duration of antinociceptive effect compared to other drugs ([2]; 3 mg/kg s.c., in words)
[2H][C@@H]1[C@H]([2H])[C@H]2[C@H]3Cc4ccc(OC)c5c4[C@@]2(CCN3C)[C@@H](O5)[C@H]1O [Example 2, (5α,6α,7β,8β)-4,5-epoxy-6-hydroxy-3-methoxy-17-methyl-(7,8-^2H2)-morphinan]	> 10000	9.9	12.1	11.9	11.7	11.8	10.1	14.2	14.8	14.9	14.1	increased and prolonged the effect	lower potency	34.1 ± 1.08	higher affinity to μ-opioid receptors than the corresponding hydrogenated derivatives	–	–	–	–	–
(5α,6α,7β,8β)-4,5-epoxy-3-ethoxy-6-hydroxy-17-methyl-(7,8-^2H2)-morphinan [Example 3]	–	10.0	12.2	11.6	11.4	11.1	10.1	12.1	13.1	12.9	11.1	increased and prolonged the effect	lower potency	–	–	6120 ± 845	205 ± 63.1	30	–	–
CN1CC[C@]23c4c5ccc(O)c4O[C@H]2[C@@H](O)C=C[C@H]3[C@H]1C5 [Morphine]	–	10.1	14.4	13.9	13.2	12.8	9.9	18.2	18.8	14.4	10.5	–	–	–	–	–	–	–	–	–
CN1CC[C@]23c4c5ccc(O)c4O[C@H]2[C@@H](O)CC[C@H]3[C@H]1C5 [Dihydromorphine]	–	10.2	13.1	13.9	14.1	13.3	10.1	19.4	20.6	15.3	14.1	–	–	–	–	–	–	–	–	–
COc1ccc2c3c1O[C@H]1[C@@H](O)CC[C@H]4[C@@H](C2)N(C)CC[C@@]341 [Dihydrocodeine]	> 10000	10.1	11.1	10.7	10.5	10.3	9.9	13.4	13.6	10.9	9.8	–	–	122 ± 15	–	–	–	–	–	–
[2H][C@H]1C(=O)[C@@H]2Oc3c(OC)ccc4c3[C@@]23CCN(C)[C@H](C4)[C@]3(O)[C@H]1[2H] [Example 5, (5α,7β,8β,14β)-4,5-epoxy-14-hydroxy-3-methoxy-17-methyl-(7,8-^2H2)-morphinan-6-one]	–	9.9	13.3	13.7	13.6	12.1	–	–	–	–	–	–	–	–	–	–	–	–	–	–
CCOc1ccc2c3c1O[C@H]1[C@@H](O)CC[C@H]4[C@@H](C2)N(C)CC[C@@]341 [Dihydroethylmorphine]	–	10.1	11.3	10.9	10.2	9.9	10.2	11.5	12.3	12.0	10.4	–	–	–	–	–	–	–	–	–
CC(=O)Oc1ccc2c3c1O[C@H]1[C@@H](OC(C)=O)CC[C@H]4[C@@H](C2)N(C)CC[C@@]341 [Dihydroheroine]	–	10.1	17.3	15.6	12.9	10.7	–	–	–	–	–	–	–	–	–	–	–	–	–	–
COc1ccc2c3c1O[C@H]1C(=O)CC[C@@]4(O)[C@@H](C2)N(C)CC[C@]314 [Oxycodone]	–	9.8	12.2	12.6	11.9	10.6	–	–	–	–	–	–	–	–	–	–	–	–	–	–
[2H][C@@H]1[C@H]([2H])[C@H]2[C@H]3Cc4ccc(O)c5c4[C@@]2(CCN3C)[C@@H](O5)[C@H]1O [Example 1, (5α,6α,7β,8β)-3,6-dihydroxy-4,5-epoxy-17-methyl-(7,8-^2H2)-morphinan]	–	10.1	14.1	14.9	14.9	14.1	9.8	21.3	22.1	16.8	16.1	–	more potent	–	–	–	–	–	more effective than morphine	more prolonged effects compared to other drugs

— patent US9447108B2 (SZEGEDI TUDOMÁNYEGYETEM, priority 2013, dated 2016)
